Consider two molecules from US6455590B1, “Deprenyl compounds for treatment of glaucoma” (University of Toronto Innovations.Foundation, priority 1995, dated 2002).

The nature of data set [1]: Stability of deprenyl as a function of the pH of the medium. It is filed as physicochemical. To be noted: pH about 3-5 versus pH about 7. The source says: The stability of deprenyl can be affected by the pH of the medium in which the deprenyl is formulated. […] Therefore, when formulating a deprenyl compound in a pharmaceutical composition, it is preferred that the deprenyl compound be maintained at a suitable pH. In preferred embodiments, a pharmaceutical composition of the invention has a pH in the range of about 3 to about 5, more preferably about 3 to about 4. Furthermore, ethyl alcohol is a preferred solvent for improving stability of deprenyl. Thus, in certain embodiments, alcoholic or aqueous alcoholic media are preferred for the pharmaceutical compositions of the invention.

Data set [2] concerns retinal ganglion cells projecting to the superior colliculus (RGC^SCs) / RGCL neuronal cell bodies. Description: Optic nerve crush in rats: counts of Nissl-stained and Fluoro-Gold-labelled cell bodies in the retinal ganglion cell layer. Type of data set: in vivo. To be noted: for counts of RGCL neuronal cell bodies (RGCLncbs) per mm length of retinal cross-section: Nissl stain, FIG. 1. The source says: All animals were handled according to the Declaration of Helsinki and The Guiding Principles in the Care and Use of Animals. […] The injections were delivered from a 10 microliter Hamilton syringe over a period of fifteen minutes.
It has been reported that 40-50% of the neurons whose cell bodies are located in the retinal ganglion cell layer (RGCL) of the rat send an axon to the optic nerve and are RGCs (Cowey et al. (1979) Exp. Brain Res. 35, 457-64; Perry V. H. (1981) Neuroscience 6, 931-44: and Linden et al. (1989) Brain Res. 272, 145-149). […] Most RGCs (>95%) in rats send their axons to the SC with as many as 10% also sending branches to the lateral geniculate body (Cowey et al. (1979) Exp. Brain Res. 35, 457-64).
Four days were allowed for the retrograde transport of the FG to the RGC^SCs cell bodies and then the left optic nerve of the rats was exposed and crushed by applying the tips of Dumont number 5 forceps to the nerve immediately behind the globe for ten seconds. Careful attention was used to avoid the central retinal artery. Each nerve was crushed three times at the same site. Following the crushes, the nerve was examined with the aid of an operating microscope to ensure that the axonal component of the nerve was divided into two clearly separated stumps surrounded by an unbroken dural sheath. Retinal artery patency was confirmed by direct ophthalmoscopy.
One group of eight rats received (−)-deprenyl (1 mg/kg) by intraperitoneal (IP) injection every two days for a fourteen day period beginning at the time of optic nerve crush. The remaining group of eight rats received IP injections of saline on the same schedule. Fourteen days after the optic nerve crush all sixteen rats were euthanized with an overdose of somnotol and perfused transcardially with 4% paraformaldehyde in phosphate buffer. The brains and retinas were immersed in 20% sucrose for twenty four hours and then frozen in −70 degrees C methylbutane. Serial […] sections were cut through the upper brain stem and diencephalon of the animals and viewed under fluorescence microscopy to determine the location and extent of the stereotactic injections of FG. Serial […] sections of the retinas were cut and every third section was Nissl stained. In order to detect even low level FG fluorescence in neuronal cell bodies or processes, the FG labelled brain sections and the retinal sections were examined with the aid of a Hamarmatsu intensification camera that allowed the fluorescent images to be digitized using a Matrox frame grabber controlled by image analysis software (Universal Metamorph). This allowed for the creation of computer images of neuronal cell bodies containing FG in the sections taken from areas of the stereotactic injections and sections taken through each of the retinas.
About 25 sections were chosen randomly from the serial sections taken from each retina. Sections were only chosen from the middle 70% of the serial sections where section length exceeded 6 mm. Nissl stained cell bodies in the RGCL were counted at 1000× magnification under oil immersion on a Leitz Orthoplan microscope. RGCL somata were only counted if they contained a well defined nucleus. The cross sectional length of the ganglion cell layer for each section was measured by transferring the retinal section image into a computer using a CCD camera (Dage Ltd.) and IPPLUS 2.1 software (Media Cybernetics). The number of RGCL neuronal cell bodies (RGCLncbs) per mm length of retinal crossection was calculated and were pooled for each of the four lesion/treatment groups (uncrushed-saline, uncrushed-deprenyl, crushed-saline and crushed-deprenyl).
A similar group of sections were randomly chosen from one of the two remaining series of retinal sections. […]

Another data set concerns cell death. Nature of the data set: Animal and cell-culture studies of prevention of cell death with the P450 inhibitor Proadifen. To be noted: co-administration of the P450 inhibitor Proadifen. From the text: It is believed that certain deprenyl compounds can be at least partially metabolized in vivo after administration to a subject. For example, (−)-deprenyl can be metabolized by the liver to (−)-desmethyldeprenyl, as well as (−)-methamphetamine and (−)-amphetamine, after oral administration. The hepatic metabolism of (−)-deprenyl can be inhibited by administration of a P450 inhibitor such as Proadifen. […] It is presently believed that (−)-methamphetamine and (−)-amphetamine are inhibitors of the cell-rescuing activity of deprenyl compounds. […] Absence of MAO inhibitor activity may in fact provide a drug with fewer side effects.

Turning to `C#CCN(C)C(C)Cc1ccccc1` (single isomer, unassigned; (-)) [(−)-deprenyl, N,α-dimethyl-N-2-propynylphenethylamine], in data set [1], the “stability depending on pH of the medium” value is given as “more stable at a pH in the range of about 3-5 than at a pH of about 7”. Also, the “counts of RGCL neuronal cell bodies (RGCLncbs) per mm length of retinal cross-section” value in data set [2] (crushed optic nerve, 14 days after crush, (−)-deprenyl 1 mg/kg IP every two days) is recorded as 32.60+/−9.94; in data set [2] (uncrushed optic nerve, (−)-deprenyl 1 mg/kg IP every two days for 14 days) it was 48.39+/−8.48 /mm. The “RGC^SCs as percentage of the mean value of the distribution for the uncrushed saline retinas” value in data set [2] (crushed optic nerve, 14 days, crushed saline 3.0%, FIG. 3) is listed as 36.9+/−11.2%. In data set [2] (crushed optic nerve, 14 days, crushed saline 46%), the “numbers of neuronal cell bodies/mm in the RGCL as average percent of those in uncrushed saline retinae” value was 65%. Further, the “slope of FG labelled versus Nissl stained cell body counts” value in data set [2] (crushed retinas, FIG. 2) is reported as 0.219+/−0.019. In addition, the “mean ratio of FG labelled to Nissl stained somata” value in data set [2] (crushed retinas, crushed saline 0.003) is given as 0.245+/−0.055. Besides, in data set [2] (crushed retinas, estimated assuming 40-50% of RGCL neurons do not send axons to the optic nerve, crushed saline less than 10%), the “survival of RGCs at fourteen days” value is 30-40%. The “effect of Proadifen on cell-rescuing activity (prevention of cell death)” value in the data set on cell death is on record as “Proadifen reduces the ability of (−)-deprenyl to prevent cell death”.
In the case of `C#CCN[C@H](C)Cc1ccccc1` [(−)-desmethyldeprenyl], the “effect of Proadifen on cell-rescuing activity (prevention of cell death)” value in the data set on cell death is “does not block the cell-rescuing activity”.
